From patent US10994018B2, “Long-acting palmitic acid-conjugated GnRH derivative, and pharmaceutical composition containing same” (priority 2017, dated 2021)
Where two headings read alike, the source gives them in different places. One block for each compound: values may come before it. Where a SMILES comes first, the peptide text is derived from it. [ ]: non-standard residue; d: D form. The star is where a group is joined. Palmitoyl = CCCCCCCCCCCCCCCC(=O)*

Tests used:
[1] = test system: prostate cancer cell line DU-145; experiment: Cell death assay (Cell Counting Kit-8) on prostate cancer cells; format: cell-based
Protocol: GnRH derivatives are clinically applied to the treatment of diseases including breast cancer, prostate cancer, endometriosis, central precocious puberty, and the like. The DU-145 cell line, which is a type of prostate cancer cells, was cultured in T75 flasks containing an adequate amount of RPIM 1640 culture medium (containing 10% FBS, penicillin/streptomycin, and 1% non-essential amino acids) in a sterile incubator having 5% CO2/95% air at 37° C. Cell death assay was performed using the Cell Counting Kit-8 (CCK-8, manufactured by DOJINDO). The […] cells were separated from the T75 flasks by trypsinization treatment and transferred to 96-well plates at a density of 1×10^4 cells/well, followed by incubation for one hour for attachment. Subsequently, the cells were treated with various concentrations of GnRH or GnRH derivatives, and control reagents. Specifically, 1% DMSO was used as a negative control for cell death while 0.1% SDS served as a positive control. After 48 hours of incubation, the existing culture medium was removed, and 100 μL of fresh culture medium and 10 μL of CCK-8 solution were applied to each well. Again, after 48 hours of incubation, the medium solution was replaced by 100 μL of fresh culture medium and 10 μL of CCK-8 solution. The cells were incubated for 4 hours, and then the absorbance was measured at 450 nm to assess cell viability.

[2] = Blood concentration and pharmacokinetics after single subcutaneous administration to rats (LC/MSMS); format: in vivo, female SD rats; conditions: rat
Protocol: Before administration and at 0.5, 1, 2, and 6 hours and on days 1, 3, 7, 10, 14, 21, and 28 after administration, blood samples were taken from the tail vein of the rats and measured for the blood concentrations of Leuprolide and GnRH derivatives, using LC/MSMS. If the concentration reached about 4 ng/mL at a specific time point, no measurements were further made for the next time point. The measurement results are graphically depicted in FIGS. 4 to 6. Based on the results, pharmacokinetic analysis was carried out by calculating the half-life (t1/2), clearance rate (CL), volume of distribution (Vd), time to reach the maximum concentration following drug administration (Tmax), maximum concentration following drug administration (Cmax), and systemic exposure to drug (AUCt). The analysis results are as follows.

[3] = cited from earlier work
[4] = emulsion; same dose (Peng et al., 2010); cited from earlier work
[5] = female, SD, in vivo, sc, 12.5 mg/kg
[6] = female, SD, in vivo, sc, 12.5 mg/kg, blood concentration, Mean

Compound: CCCCCCCCCCCCOS(=O)(=O)[O-].[Na+] [0.1% SDS, reference compound]
- Viability relative to control (%) ([1]; DU-145 cells, positive control at 0.1%): 21.7%

- level at 0.5 h ([2]; female, SD, blood, sc, 12.5 mg/kg, s.c. once 12.5 mg/kg, 0.5 hr., read-out: blood concentration, Mean): 11.8 ng/mL
- level at 1 h ([2]; female, SD, blood, sc, 12.5 mg/kg, s.c. once 12.5 mg/kg, 1 hr., read-out: blood concentration, Mean): 16.9 ng/mL
- level at 2 h ([2]; female, SD, blood, sc, 12.5 mg/kg, s.c. once 12.5 mg/kg, 2 hr., read-out: blood concentration, Mean): 29.1 ng/mL
- level at 6 h ([2]; female, SD, blood, sc, 12.5 mg/kg, s.c. once 12.5 mg/kg, 6 hr., read-out: blood concentration, Mean): 52.2 ng/mL
- level at 24 h ([2]; female, SD, blood, sc, 12.5 mg/kg, s.c. once 12.5 mg/kg, 1 day): 45 ng/mL
- level at 168 h ([2]; female, SD, blood, sc, 12.5 mg/kg, s.c. once 12.5 mg/kg, 7 days): 11.9 ng/mL
- level at 240 h ([2]; female, SD, blood, sc, 12.5 mg/kg, s.c. once 12.5 mg/kg, 10 days): 8.18 ng/mL
- level at 336 h ([2]; female, SD, blood, sc, 12.5 mg/kg, s.c. once 12.5 mg/kg, 14 days): 4.35 ng/mL
- CL (clearance rate) ([2]; s.c. once 12.5 mg/kg): 0.051 (mg/kg)/(ng/ml)/day
- Vd (volume of distribution) ([2]; s.c. once 12.5 mg/kg): 0.351 (mg/kg)/(ng/ml)
Compound: CCCCCCCCCCCCCCCC(=O)N[C@@H](CCC(N)=O)C(=O)N[C@@H](Cc1c[nH]cn1)C(=O)N[C@@H](Cc1c[nH]c2ccccc12)C(=O)N[C@@H](CO)C(=O)N[C@@H](Cc1ccc(O)cc1)C(=O)N[C@H](CC(C)C)C(=O)N[C@@H](CC(C)C)C(=O)N[C@@H](CCCNC(=N)N)C(=O)N1CCC[C@H]1C(=O)NCC [Derivative P2, Palmitate-Gln-His-Trp-Ser-Tyr-DLeu-Leu-Arg-Pro-NHEt] (Palmitoyl-QHWSY[dL]LRP-NHEt)
- fold greater cytotoxic effects compared to Leuprolide or GnRH [1]: 7- to 7.5 fold

Compound: CCCCCCCCCCCCCCCC(=O)N[C@@H](CCC(=O)O)C(=O)N[C@@H](Cc1c[nH]cn1)C(=O)N[C@@H](Cc1c[nH]c2ccccc12)C(=O)N[C@@H](CO)C(=O)N[C@@H](Cc1ccc(O)cc1)C(=O)N[C@H](CC(C)C)C(=O)N[C@@H](CC(C)C)C(=O)N[C@@H](CCCNC(=N)N)C(=O)N1CCC[C@H]1C(=O)NCC [Derivative P3, Palmitate-Glu-His-Trp-Ser-Tyr-DLeu-Leu-Arg-Pro-NHEt] (Palmitoyl-EHWSY[dL]LRP-NHEt)
- fold greater cytotoxic effects compared to Leuprolide or GnRH [1]: 7- to 7.5 fold

- level at 504 h ([2]; female, SD, blood, sc, 12.5 mg/kg, s.c. once 12.5 mg/kg, 21 days): 1.26 ng/mL
- CL (clearance rate) ([2]; s.c. once 12.5 mg/kg): 0.075 (mg/kg)/(ng/ml)/day
- Vd (volume of distribution) ([2]; s.c. once 12.5 mg/kg): 0.436 (mg/kg)/(ng/ml)
Compound: CCCCCCCCCCCCCCCC(=O)N[C@@H](CCC(N)=O)C(=O)N[C@@H](Cc1c[nH]cn1)C(=O)N[C@@H](Cc1c[nH]c2ccccc12)C(=O)N[C@@H](CO)C(=O)N[C@@H](Cc1ccc(O)cc1)C(=O)N[C@H](CC(C)C)C(=O)N[C@@H](CC(C)C)C(=O)N[C@@H](CCCNC(=N)N)C(=O)N1CCC[C@H]1C(=O)NCC [Derivative P4, Palmitate-Gln-His-Trp-Ser-Tyr-DLeu-Leu-Arg-Pro-NHEt] (Palmitoyl-QHWSY[dL]LRP-NHEt)

Compound: CC(C)C[C@H](NC(=O)CNC(=O)[C@H](Cc1ccc(O)cc1)NC(=O)[C@H](CO)NC(=O)[C@H](Cc1c[nH]c2ccccc12)NC(=O)[C@H](Cc1cnc[nH]1)NC(=O)[C@@H]1CCC(=O)N1)C(=O)N[C@@H](CCCNC(=N)N)C(=O)N1CCC[C@H]1C(=O)NCC(N)=O [GnRH]
- in vivo half-life in circulating blood [3]: 2 to 4 min

- AUC(0-t) [2, 5]: 1660 ng·h/mL
- Cmax [2, 5]: 1020 ng/mL
- Tmax [2, 5]: 28.8 min
- half-life [2, 5]: 43.2 min
- level at 0.5 h [2, 6]: 1020 ng/mL
- level at 1 h [2, 6]: 769 ng/mL
- level at 2 h [2, 6]: 228 ng/mL
- level at 6 h [2, 6]: 2.88 ng/mL
- CL (clearance rate) ([2]; in vivo, sc, 12.5 mg/kg): 0.180 (mg/kg)/(ng/ml)/day
- Vd (volume of distribution) ([2]; in vivo, sc, 12.5 mg/kg): 0.007 (mg/kg)/(ng/ml)
Compound: CCNC(=O)[C@@H]1CCCN1C(=O)[C@H](CCCNC(=N)N)NC(=O)[C@H](CC(C)C)NC(=O)[C@@H](CC(C)C)NC(=O)[C@H](Cc1ccc(O)cc1)NC(=O)[C@H](CO)NC(=O)[C@H](Cc1c[nH]c2ccccc12)NC(=O)[C@H](Cc1c[nH]cn1)NC(=O)[C@@H]1CCC(=O)N1 [Leuprolide, pyroGlu-His-Trp-Ser-Tyr-DLeu-Leu-Arg-Pro-NHEt, reference compound]
- cell death rate on prostate cancer cells ([1]; DU-145 cells): about 10%

Compound: dexamethasone palmitate
- anti-inflammatory effect, fold higher than dexamethasone alone [4]: 5.6 fold
